Data: ChEMBL document CHEMBL1131717, “Uncarinic acids: phospholipase Cgamma1 inhibitors from hooks of Uncaria rhynchophylla” (Bioorg Med Chem Lett, 1999)
Converted amounts (≈) assume the structure as drawn.

Tests used:
HT1197 = assay: Growth inhibitory effect of compound was measured on HT1197 human bladder adenocarcinoma cancer cell line; format: functional, cell-based
HCT-15 = assay: Growth inhibitory effect of compound was measured on HCT-15 human colon adenocarcinoma cancer cell line; format: functional, cell-based
[1] = biological target: T1, 1-phosphatidylinositol 4,5-bisphosphate phosphodiesterase gamma-1 (Homo sapiens, UniProt P19174); assay: Inhibitory concentration was evaluated against phospholipase C-gamma1
T1 sequence (P19174 whole entry): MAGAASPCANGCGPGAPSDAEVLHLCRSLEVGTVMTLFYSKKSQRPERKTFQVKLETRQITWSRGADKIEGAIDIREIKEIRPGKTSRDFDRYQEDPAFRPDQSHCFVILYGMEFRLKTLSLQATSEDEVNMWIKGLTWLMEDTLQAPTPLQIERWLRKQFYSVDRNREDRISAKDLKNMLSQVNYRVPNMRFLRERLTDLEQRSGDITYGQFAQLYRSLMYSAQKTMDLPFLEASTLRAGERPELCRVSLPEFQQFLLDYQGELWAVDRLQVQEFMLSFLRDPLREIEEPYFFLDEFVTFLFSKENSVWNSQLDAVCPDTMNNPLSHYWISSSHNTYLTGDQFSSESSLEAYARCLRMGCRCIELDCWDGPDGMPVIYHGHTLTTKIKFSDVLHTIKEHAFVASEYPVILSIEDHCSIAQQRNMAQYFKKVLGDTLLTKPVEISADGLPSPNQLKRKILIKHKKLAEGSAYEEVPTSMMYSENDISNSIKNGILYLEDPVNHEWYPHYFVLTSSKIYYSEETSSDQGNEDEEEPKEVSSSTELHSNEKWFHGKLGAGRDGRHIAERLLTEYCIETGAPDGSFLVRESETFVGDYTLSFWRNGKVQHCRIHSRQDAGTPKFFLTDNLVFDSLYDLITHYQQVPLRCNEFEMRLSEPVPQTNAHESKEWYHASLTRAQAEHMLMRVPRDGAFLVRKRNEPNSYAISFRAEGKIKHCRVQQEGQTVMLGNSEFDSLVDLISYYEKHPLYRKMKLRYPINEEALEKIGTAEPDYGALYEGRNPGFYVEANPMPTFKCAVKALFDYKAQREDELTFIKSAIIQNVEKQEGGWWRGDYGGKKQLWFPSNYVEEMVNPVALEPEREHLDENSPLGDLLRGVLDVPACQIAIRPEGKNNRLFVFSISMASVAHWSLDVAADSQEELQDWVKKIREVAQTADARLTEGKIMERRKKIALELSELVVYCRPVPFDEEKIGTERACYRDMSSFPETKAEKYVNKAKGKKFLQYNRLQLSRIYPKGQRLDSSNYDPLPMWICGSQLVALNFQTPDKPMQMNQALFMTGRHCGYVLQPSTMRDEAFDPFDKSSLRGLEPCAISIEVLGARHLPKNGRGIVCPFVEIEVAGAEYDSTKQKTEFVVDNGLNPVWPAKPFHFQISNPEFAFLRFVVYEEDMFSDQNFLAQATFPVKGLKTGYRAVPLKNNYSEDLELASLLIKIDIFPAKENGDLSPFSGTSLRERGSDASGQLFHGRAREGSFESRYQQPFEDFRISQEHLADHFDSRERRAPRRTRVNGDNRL

A549 = assay: Growth inhibitory effect of compound was measured on A-549 human lung adenocarcinoma cancer cell line; format: functional, cell-based
MCF7 = assay: Growth inhibitory effect of compound was measured on MCF-7 human breast adenocarcinoma cancer cell line; format: functional, cell-based

IC50 (HCT-15) [µg/mL] | IC50 [1] [µM] | IC50 (A549) [µg/mL] | IC50 (MCF7) [µg/mL] | SMILES | IC50 (HT1197) [µg/mL]
1.41 (≈ 2.17 µM) | 35.7 | 0.73 (≈ 1.13 µM) | 2.03 (≈ 3.13 µM) | COc1cc(/C=C/C(=O)OC[C@@]23CC[C@@]4(C(=O)O)CCC(C)(C)C[C@H]4C2=CCC2[C@@]4(C)CC[C@H](O)C(C)(C)C4CC[C@]23C)ccc1O (stereo not given in full) | 3.53 (≈ 5.44 µM)
1.44 (≈ 2.22 µM) | 44.6 | 1.79 (≈ 2.76 µM) | 2.59 (≈ 3.99 µM) | COc1cc(/C=C\C(=O)OC[C@@]23CC[C@@]4(C(=O)O)CCC(C)(C)C[C@H]4C2=CCC2[C@@]4(C)CC[C@H](O)C(C)(C)C4CC[C@]23C)ccc1O (stereo not given in full) | 2.34 (≈ 3.61 µM)
